Values of other authors as cited in patent US20070020218A1, “Composition and method for the treatment of psoriasis” (priority 2005, published 2007).

Tests used:
degenerative arthritis = settings: 2,250 mg daily for six weeks
[1] = system: osteoarthritis of the knee; settings: after 4 weeks, 252 people
knee osteoarthritis = settings: for persistence of benefits after treatment was stopped: followed for an additional 60 days after the 90 days of treatment; for reduction of symptoms: over 90 days of treatment
[2] = oral
[3] = system: osteoarthritis of the knee; settings: 85 people with osteoarthritis of the knee
arthritis of the knee = settings: 12 months, 104 individuals

Molecule: CS(C)(=O)=O [MSM, Methylsulfonyl methane]
- reduction in pain on average (degenerative arthritis): 82%

Molecule: N[C@H]1C(O)O[C@H](CO)[C@@H](O)[C@@H]1O.O=S(=O)(O)O (stereo partly drawn) [glucosamine sulfate]
- pain and movement against placebo [1]: significantly reduced pain and improved movement
- persistence of benefits after treatment was stopped (knee osteoarthritis): lasted for the full 60 days
- reduction of symptoms (knee osteoarthritis): equally effective

Molecule: CN1C(C(=O)Nc2ccccn2)=C(O)c2ccccc2S1(=O)=O [piroxicam, reference compound]
- persistence of benefits after treatment was stopped (knee osteoarthritis): rapidly disappeared
- reduction of symptoms (knee osteoarthritis): equally effective

Molecule: chondroitin sulfate
- chondroitin absorbed intact [2]: up to 15%
- participants with improved results [3]: 69%
- trial outcome against placebo (arthritis of the knee): Good results
